According to patent US20220183976A1, “COMPOSITIONS OF DISPERSED PHASE FOR PREPARATION OF APIXABAN-LOADED MICROSPHERES AND BIOCOMPATIBLE POLYMER-BASED APIXABAN-LOADED MICROSPHERES PREPARED THEREFROM” (HLB PHARMACEUTICAL CO., LTD., priority 2019, published 2022):

Assay: Dissolution of Apixaban in non-halogen and halogen organic solvents
Assay type: physicochemical
Description: 25 mg of Apixaban was added to 1 mL of each of ethyl acetate, ethyl formate, methyl propionate, and ethanol and stirred. As a result, it was confirmed that Apixaban was not dissolved in non-halogen organic solvents (FIG. 1).
25 mg of Apixaban was dissolved in 1 mL of dichloromethane, and the mixture was photographed after 12 hours.

Dissolution of Apixaban in non-halogen organic solvents (25 mg in 1 mL of each of ethyl acetate, ethyl formate, methyl propionate, ethanol, stirred): not dissolved | Apixaban concentration in dichloromethane at which recrystallization occurs (dichloromethane): ≥ 10 mg/mL
Compound: COc1ccc(-n2nc(C(N)=O)c3c2C(=O)N(c2ccc(N4CCCCC4=O)cc2)CC3)cc1 [Apixaban]
Dissolution of Apixaban in halogen organic solvent (25 mg in 1 mL of dichloromethane, photographed after 12 hours): completely dissolved in the beginning, but after a certain time, crystals were formed
